Consider 1 compound from US4452778A, “Synergistic antibacterial compositions and method of treatment of infections caused by multiple antibiotic-resistant organisms” (Eli Lilly and Company, priority 1981, dated 1984).

Each structure is given as a SMILES string. Like-named read-outs stand apart in the source and are kept apart here.

The test system of the assay is Acinetobacter sp. Put plainly: Checkerboard broth dilution synergy study (mic). The note with it: for MIC: Acinetobacter, read-out: mic, drug alone. It is filed as cell-based.

By MIC is commonly meant the least concentration at which growth counts as inhibited. As for `COC1(NC(=O)C(C(=O)O)c2ccc(O)cc2)C(=O)N2C(C(=O)O)=C(CSc3nnnn3C)COC21` (centres unmarked) [1-oxa compound I, moxalactam], the MIC (Table II, strain 28-1) was 16 µg/mL; the MIC (Table II, strain 28-2) came to 16 µg/mL; the MIC (Table II, strain 106) was 8 µg/mL; the MIC (Table II, strain 107) was 32 µg/mL; the MIC (Table II, strain 109) was found to be 16 µg/mL; the MIC (Table III, isolate 28-1) stood at 16 µg/mL. The MIC is, setting by setting: (Table III, isolate 28-2) 16 µg/mL; (Table III, isolate 106) 8 µg/mL; (Table III, isolate 107) 32 µg/mL; (Table III, isolate 109) 16 µg/mL. Further, the “mic of each drug in combination I + T” value reads like this: (Table II, strain 28-1) 0.6 µg/mL; (Table II, strain 28-2) 2 µg/mL; (Table II, strain 106) 0.6 µg/mL; (Table II, strain 107) 2 µg/mL; (Table II, strain 109) 2 µg/mL. For the same compound, the “mic of each drug in combination I + A” value runs as follows: (Table III, isolate 28-1) 2 µg/mL; (Table III, isolate 28-2) < 0.06 µg/mL; (Table III, isolate 106) < 0.06 µg/mL; (Table III, isolate 107) 8 µg/mL; (Table III, isolate 109) 8 µg/mL.
